Drawing on patent US11802111B2, “Cyclobutyl amide monoacylglycerol lipase modulators” (Janssen Pharmaceutica NV, priority 2020, dated 2023), this text covers IC50 for 29 molecules.

human MGL from HeLa cells, sequence (Q99685 whole entry): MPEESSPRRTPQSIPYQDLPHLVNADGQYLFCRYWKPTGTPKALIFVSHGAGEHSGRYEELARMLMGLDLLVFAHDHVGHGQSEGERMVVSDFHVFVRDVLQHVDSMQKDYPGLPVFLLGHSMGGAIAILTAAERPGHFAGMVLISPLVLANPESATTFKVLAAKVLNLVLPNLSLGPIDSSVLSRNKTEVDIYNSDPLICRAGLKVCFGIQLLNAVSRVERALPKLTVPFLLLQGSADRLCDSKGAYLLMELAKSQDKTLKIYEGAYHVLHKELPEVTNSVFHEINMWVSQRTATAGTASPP

The test addresses human MGL from HeLa cells (Homo sapiens (Human), UniProt Q99685). The test can be described thus: MGL in vitro activity assay ([glycerol-1,3-3H]-oleoyl glycerol hydrolysis, activated carbon filtration). The class given is biochemical. Particulars: 300 nM [Glycerol-1,3-3H]-oleoyl glycerol, one hour. On the procedure: The assay used to measure the in vitro activity of MGL is adapted from the assay used for another serine hydrolase (FAAH) described in Wilson et al., 2003 (A high-throughput-compatible assay for determining the activity of fatty acid amide hydrolase. Wilson S J, Lovenberg T W, Barbier A J. Anal Biochem. 2003 Jul. 15; 318(2):270-5). The assay consists of combining endogenously expressed MGL from HeLa cells with test compounds, adding [glycerol-1,3-^3H]-oleyl glycerol, incubating for one hour, and then measuring the amount of cleaved [1,3-^3H]-glycerol that passes through an activated carbon filter. The amount of cleaved, tritiated glycerol passing through the carbon filter is proportional to the activity of the MGL enzyme in a particular well/test condition.
Standard conditions for this assay combine 300 nM [Glycerol-1,3-^3H]-oleoyl glycerol with human MGL from HeLa cells and test compounds for one hour, after which the reaction is filtered through activated carbon and tritium is measured in the flow through. The test compound concentration in screening mode is 10 μM, while the highest compound concentration in IC50 assays is determined empirically. MGL is the predominant hydrolase in HeLa cells/cell homogenates.
In the case of `Cc1c(C2CCC3(C2)CN(C(=O)[C@H]2C[C@@](C)(O)C2)C3)cccc1C(F)(F)F` (mixture of isomers) [Example 7, (rac)-((1s,3s)-3-Hydroxy-3-methylcyclobutyl)(6-(2-methyl-3-(trifluoromethyl)phenyl)-2-azaspiro[3.4]octan-2-yl)methanone], the IC50 was 10 nM. Next, `Cc1cc(C(F)(F)F)ccc1C1CCC2(C1)CN(C(=O)[C@H]1C[C@@](C)(O)C1)C2` (mixture of isomers) [Example 8, (rac)-((1s,3s)-3-Hydroxy-3-methylcyclobutyl)(6-(2-methyl-4-(trifluoromethyl)phenyl)-2-azaspiro[3.4]octan-2-yl)methanone]: 5 nM; `Cc1cc(OC(F)(F)F)ccc1C1CCC2(C1)CN(C(=O)[C@H]1C[C@@](C)(O)C1)C2` (mixture of isomers) [Example 9, (rac)-((1s,3s)-3-Hydroxy-3-methylcyclobutyl)(6-(2-methyl-4-(trifluoromethoxy)phenyl)-2-azaspiro[3.4]octan-2-yl)methanonemethanone]: 3.4 nM; `Cc1cc(Cl)ccc1C1CCC2(C1)CN(C(=O)[C@H]1C[C@@](C)(O)C1)C2` (mixture of isomers) [Example 10, (rac)-(6-(4-Chloro-2-methylphenyl)-2-azaspiro[3.4]octan-2-yl)((1s,3s)-3-hydroxy-3-methylcyclobutyl)methanone]: 22 nM. In the case of `Cc1c(Cl)cccc1C1CCC2(C1)CN(C(=O)[C@H]1C[C@@](C)(O)C1)C2` (mixture of isomers) [Example 11, (rac)-(6-(3-Chloro-2-methylphenyl)-2-azaspiro[3.4]octan-2-yl)((1s,3s)-3-hydroxy-3-methylcyclobutyl)methanone], the IC50 was 37 nM. For the molecule `Cc1cc(C2CCC3(C2)CN(C(=O)[C@H]2C[C@@](C)(O)C2)C3)ccc1C(F)F` (mixture of isomers) [Example 12, (rac)-(6-(4-(Difluoromethyl)-3-methylphenyl)-2-azaspiro[3.4]octan-2-yl)((1s,3s)-3-hydroxy-3-methylcyclobutyl)methanone], half-maximal inhibition (IC50) was put at 25 nM. Take `COc1cccc(C2CCC3(C2)CN(C(=O)[C@H]2C[C@@](C)(O)C2)C3)c1C` (mixture of isomers) [Example 13, (rac)-((1s,3s)-3-Hydroxy-3-methylcyclobutyl)(6-(3-methoxy-2-methylphenyl)-2-azaspiro[3.4]octan-2-yl)methanone]: 159 nM corresponded to half-maximal inhibition (IC50).

The molecule `Cc1ccc(C2CCC3(C2)CN(C(=O)[C@H]2C[C@@](C)(O)C2)C3)c(C)c1` (mixture of isomers) [Example 14, (rac)-(6-(2,4-Dimethylphenyl)-2-azaspiro[3.4]octan-2-yl)((1s,3s)-3-hydroxy-3-methylcyclobutyl)methanone] returned an IC50 of 26 nM. In the case of `CCc1cc(C2CCC3(C2)CN(C(=O)[C@H]2C[C@@](C)(O)C2)C3)ccc1Cl` (mixture of isomers) [Example 15, (rac)-(6-(4-Chloro-3-ethylphenyl)-2-azaspiro[3.4]octan-2-yl)((1s,3s)-3-hydroxy-3-methylcyclobutyl)methanone], the IC50 turned out to be 6 nM.

With `C[C@]1(O)C[C@@H](C(=O)N2CC3(CCC(c4ccc5c(c4)CCC5)C3)C2)C1` (mixture of isomers) [Example 16, (rac)-(6-(2,3-Dihydro-1H-inden-5-yl)-2-azaspiro[3.4]octan-2-yl)((1s,3s)-3-hydroxy-3-methylcyclobutyl)methanone], the IC50 was found to be 10 nM.

`COc1cc(C2CCC3(C2)CN(C(=O)[C@H]2C[C@@](C)(O)C2)C3)ccc1C` (mixture of isomers) [Example 17, (rac)-((1s,3s)-3-Hydroxy-3-methylcyclobutyl)(6-(3-methoxy-4-methylphenyl)-2-azaspiro[3.4]octan-2-yl)methanone] had an IC50 of 46 nM. In the case of `C[C@]1(O)C[C@@H](C(=O)N2CC3(CCC(c4cccc(C5CC5)c4F)C3)C2)C1` (mixture of isomers) [Example 24, (rac)-(6-(3-Cyclopropyl-2-fluorophenyl)-2-azaspiro[3.4]octan-2-yl)((1s,3s)-3-hydroxy-3-methylcyclobutyl)methanone], the IC50 was determined as 11 nM. Next, `CC(C)(C)c1cccc(C2CCC3(C2)CN(C(=O)[C@H]2C[C@@](C)(O)C2)C3)n1` (mixture of isomers) [Example 29, (rac)-(6-(6-(tert-Butyl)pyridin-2-yl)-2-azaspiro[3.4]octan-2-yl)((1s,3s)-3-hydroxy-3-methylcyclobutyl)methanone]: 7.7 nM; `CC(C)c1ccc(C2CCC3(C2)CN(C(=O)[C@H]2C[C@@](C)(O)C2)C3)cc1` (mixture of isomers) [Example 35, (rac)-((1s,3s)-3-Hydroxy-3-methylcyclobutyl)(6-(4-isopropylphenyl)-2-azaspiro[3.4]octan-2-yl)methanone]: 15 nM. Next, `CC(C)(C)c1cccc(C2CCC3(CCN(C(=O)[C@H]4C[C@@](C)(O)C4)CC3)C2)c1` (mixture of isomers) [Example 38, (rac)-(2-(3-(tert-Butyl)phenyl)-8-azaspiro[4.5]decan-8-yl)((1s,3s)-3-hydroxy-3-methylcyclobutyl)methanone]: 20 nM; `CC(C)(C)c1ccc(C2CCC3(CCN(C(=O)[C@H]4C[C@@](C)(O)C4)CC3)C2)cc1` (mixture of isomers) [Example 39, (rac)-(2-(4-(tert-Butyl)phenyl)-8-azaspiro[4.5]decan-8-yl)((1s,3s)-3-hydroxy-3-methylcyclobutyl)methanone]: 18 nM; `C[C@]1(O)C[C@@H](C(=O)N2CC3(CCC(c4cccc(OC(F)(F)F)c4)C3)C2)C1` (mixture of isomers) [Example 40, (rac)-((1s,3s)-3-Hydroxy-3-methylcyclobutyl)(6-(3-(trifluoromethoxy)phenyl)-2-azaspiro[3.4]octan-2-yl)methanone]: 23 nM. Next, `CC(C)(C)c1cccc(C2CCC3(C2)CN(C(=O)[C@H]2C[C@@](C)(O)C2)C3)c1` (mixture of isomers) [Example 43, (rac)-(6-(3-(tert-Butyl)phenyl)-2-azaspiro[3.4]octan-2-yl)((1s,3s)-3-hydroxy-3-methylcyclobutyl)methanone]: 6.9 nM; `CC(C)c1cccc(C2CCC3(C2)CN(C(=O)[C@H]2C[C@@](C)(O)C2)C3)c1` (mixture of isomers) [Example 46, (rac)-((1s,3s)-3-Hydroxy-3-methylcyclobutyl)(6-(3-isopropylphenyl)-2-azaspiro[3.4]octan-2-yl)methanone]: 13 nM; `C[C@]1(O)C[C@@H](C(=O)N2CC3(CCC(c4ccc(C5CC5)cc4)C3)C2)C1` (mixture of isomers) [Example 49, (rac)-(6-(4-Cyclopropylphenyl)-2-azaspiro[3.4]octan-2-yl)((1s,3s)-3-hydroxy-3-methylcyclobutyl)methanone]: 14 nM. For `C[C@]1(O)C[C@@H](C(=O)N2CC3(CCC(c4ccc(OC(F)(F)F)cc4)C3)C2)C1` (mixture of isomers) [Example 52, (rac)-((1s,3s)-3-Hydroxy-3-methylcyclobutyl)(6-(4-(trifluoromethoxy)phenyl)-2-azaspiro[3.4]octan-2-yl)methanone], the IC50 worked out at 16 nM. As for `C[C@]1(O)C[C@@H](C(=O)N2CC3(CCC(c4ccc(C(F)(F)F)cc4)C3)C2)C1` (mixture of isomers) [Example 55, (rac)-((1s,3s)-3-Hydroxy-3-methylcyclobutyl)(6-(4-(trifluoromethyl)phenyl)-2-azaspiro[3.4]octan-2-yl)methanone], the IC50 worked out at 22 nM. `C[C@]1(O)C[C@@H](C(=O)N2CC3(CCC(c4cccc(C5CC5)c4)C3)C2)C1` (mixture of isomers) [Example 58, (rac)-(6-(3-Cyclopropylphenyl)-2-azaspiro[3.4]octan-2-yl)((1s,3s)-3-hydroxy-3-methylcyclobutyl)methanone] had an IC50 of 41 nM. Turning to `C[C@]1(O)C[C@@H](C(=O)N2CC3(CCC(c4cccc(C(F)(F)F)c4)C3)C2)C1` (mixture of isomers) [Example 61, (rac)-((1s,3s)-3-Hydroxy-3-methylcyclobutyl)(6-(3-(trifluoromethyl)phenyl)-2-azaspiro[3.4]octan-2-yl)methanone], the IC50 stood at 29 nM. In turn, `C[C@]1(O)C[C@@H](C(=O)N2CC3(CCC(c4cccc(C5CCC5)c4)C3)C2)C1` (mixture of isomers) [Example 64, (rac)-(6-(3-Cyclobutylphenyl)-2-azaspiro[3.4]octan-2-yl)((1s,3s)-3-hydroxy-3-methylcyclobutyl)methanone] yielded an IC50 of 14 nM. On to `Cc1ccc(C2CCC3(C2)CN(C(=O)[C@H]2C[C@@](C)(O)C2)C3)cc1C(F)(F)F` (mixture of isomers) [Example 65, (rac)-((1s,3s)-3-Hydroxy-3-methylcyclobutyl)(6-(4-methyl-3-(trifluoromethyl)phenyl)-2-azaspiro[3.4]octan-2-yl)methanone], for which it took 11 nM to reach half-maximal inhibition (IC50).

For `Cc1cc(C2CCC3(C2)CN(C(=O)[C@H]2C[C@@](C)(O)C2)C3)ccc1OC(F)(F)F` (mixture of isomers) [Example 66, (rac)-((1s,3s)-3-Hydroxy-3-methylcyclobutyl)(6-(3-methyl-4-(trifluoromethoxy)phenyl)-2-azaspiro[3.4]octan-2-yl)methanone], the IC50 came to 0.5 nM. Molecule `Cc1cc(C2CCC3(C2)CN(C(=O)[C@H]2C[C@@](C)(O)C2)C3)ccc1C(F)(F)F` (mixture of isomers) [Example 67, (rac)-((1s,3s)-3-Hydroxy-3-methylcyclobutyl)(6-(3-methyl-4-(trifluoromethyl)phenyl)-2-azaspiro[3.4]octan-2-yl)methanone] registered a 50% inhibitory concentration (IC50) of 1.7 nM. The molecule `Cc1cc(C2CCC3(C2)CN(C(=O)[C@H]2C[C@@](C)(O)C2)C3)ccc1Cl` (mixture of isomers) [Example 68, (rac)-(6-(4-Chloro-3-methylphenyl)-2-azaspiro[3.4]octan-2-yl)((1s,3s)-3-hydroxy-3-methylcyclobutyl)methanone] returned an IC50 of 12 nM.

As a reminder, the IC50 is the concentration that inhibits the measured activity by half. Read a low IC50 as higher potency.
